Measurements taken from patent US9469650B2, “Melampomagnolide B derivatives” (BOARD OF TRUSTEES OF THE UNIVERSITY OF ARKANSAS, priority 2013, dated 2016).
Like-named read-outs stand apart in the source and are kept apart here.

How the values were obtained:
MOLT-4 = test: panel of 60 human tumor cell lines, growth inhibition (Leukemia); details: MOLT-4
SK-MEL-2 = test: panel of 60 human tumor cell lines, growth inhibition (Melanoma); details: SK-MEL-2
SK-MEL-28 = test: as above; details: SK-MEL-28
UACC-62 = test: as above; details: UACC-62
SF-539 = test: panel of 60 human tumor cell lines, growth inhibition (CNS Cancer); details: SF-539
SNB-19 = test: as above; details: SNB-19
COLO 205 = test: panel of 60 human tumor cell lines, growth inhibition (Colon Cancer); details: COLO 205
KM12 = test: as above; details: KM12
A498 = test: panel of 60 human tumor cell lines, growth inhibition (Renal Cancer); details: A498
CAKI-1 = test: as above; details: CAKI-1
RXF 393 = test: as above; details: RXF 393
MDA-MB-468 = test: panel of 60 human tumor cell lines, growth inhibition (Breast Cancer); details: MDA-MB-468
IGROV1 = test: panel of 60 human tumor cell lines, growth inhibition (Ovarian Cancer); details: IGROVI
NCI/ADR-RES = test: as above
PC-3 = test: panel of 60 human tumor cell lines, growth inhibition (Prostate Cancer); details: PC-3
DU-145 = test: as above; details: DU-145
HOP-92 = test: panel of 60 human tumor cell lines, growth inhibition (Non-Small Cell Lung Cancer); details: HOP-92
NCI-H23 = test: as above; details: NCI-H23

C=C1C(=O)O[C@H]2[C@H]1CC/C(COC(=O)N1CCC(F)(F)CC1)=C\CC[C@@]1(C)O[C@@H]21 [JVM 2-66]
GI50 (HL-60(TB)): 2040 nM
TGI (HL-60(TB)): 7.15E−6
Percent Growth (HL-60(TB); Log10 Concentration −4.0): −49%
Percent Growth (HL-60(TB); Log10 Concentration −5.0): −13%
Percent Growth (HL-60(TB); Log10 Concentration −6.0): 79%
Percent Growth (HL-60(TB); Log10 Concentration −7.0): 84%
Percent Growth (HL-60(TB); Log10 Concentration −8.0): 97%
CC50 (HL-60(TB); read-out: LC50): > 100000 nM
GI50 (MOLT-4): 2050 nM
TGI (MOLT-4): 5.71E−6
Percent Growth (MOLT-4; Log10 Concentration −4.0): −39%
Percent Growth (MOLT-4; Log10 Concentration −5.0): −27%
Percent Growth (MOLT-4; Log10 Concentration −6.0): 85%
Percent Growth (MOLT-4; Log10 Concentration −7.0): 85%
Percent Growth (MOLT-4; Log10 Concentration −8.0): 94%
GI50 (SK-MEL-2): 2930 nM
TGI (SK-MEL-2): 8.95E−6
Percent Growth (SK-MEL-2; Log10 Concentration −4.0): −84%
Percent Growth (SK-MEL-2; Log10 Concentration −5.0): −5%
Percent Growth (SK-MEL-2; Log10 Concentration −6.0): 98%
Percent Growth (SK-MEL-2; Log10 Concentration −7.0): 99%
Percent Growth (SK-MEL-2; Log10 Concentration −8.0): 100%
GI50 (SK-MEL-28): 2510 nM
TGI (SK-MEL-28): 7.42E−6
Percent Growth (SK-MEL-28; Log10 Concentration −4.0): −84%
Percent Growth (SK-MEL-28; Log10 Concentration −5.0): −14%
Percent Growth (SK-MEL-28; Log10 Concentration −6.0): 92%
Percent Growth (SK-MEL-28; Log10 Concentration −7.0): 94%
Percent Growth (SK-MEL-28; Log10 Concentration −8.0): 102%
GI50 (UACC-62): 2110 nM
TGI (UACC-62): 6.00E−6
Percent Growth (UACC-62; Log10 Concentration −4.0): −94%
Percent Growth (UACC-62; Log10 Concentration −5.0): −24%
Percent Growth (UACC-62; Log10 Concentration −6.0): 86%
Percent Growth (UACC-62; Log10 Concentration −7.0): 94%
Percent Growth (UACC-62; Log10 Concentration −8.0): 97%
GI50 (SF-539): 1980 nM
TGI (SF-539): 459E−6
Percent Growth (SF-539; Log10 Concentration −4.0): −88%
Percent Growth (SF-539; Log10 Concentration −5.0): −46%
Percent Growth (SF-539; Log10 Concentration −6.0): 90%
Percent Growth (SF-539; Log10 Concentration −7.0): 85%
Percent Growth (SF-539; Log10 Concentration −8.0): 96%
GI50 (SNB-19): 12800 nM
TGI (SNB-19): 2.84E−5
Percent Growth (SNB-19; Log10 Concentration −4.0): −79%
Percent Growth (SNB-19; Log10 Concentration −5.0): 66%
Percent Growth (SNB-19; Log10 Concentration −6.0): 89%
Percent Growth (SNB-19; Log10 Concentration −7.0): 91%
Percent Growth (SNB-19; Log10 Concentration −8.0): 93%
GI50 (COLO 205): 2060 nM
TGI (COLO 205): 4.17E−6
Percent Growth (COLO 205; Log10 Concentration −4.0): −93%
Percent Growth (COLO 205; Log10 Concentration −5.0): −62%
Percent Growth (COLO 205; Log10 Concentration −6.0): 101%
Percent Growth (COLO 205; Log10 Concentration −7.0): 96%
Percent Growth (COLO 205; Log10 Concentration −8.0): 102%
GI50 (KM12): 8550 nM
TGI (KM12): 2.26E−5
Percent Growth (KM12; Log10 Concentration −4.0): −85%
Percent Growth (KM12; Log10 Concentration −5.0): 46%
Percent Growth (KM12; Log10 Concentration −6.0): 99%
Percent Growth (KM12; Log10 Concentration −7.0): 97%
Percent Growth (KM12; Log10 Concentration −8.0): 103%
GI50 (A498): 1590 nM
TGI (A498): 6.87E−6
Percent Growth (A498; Log10 Concentration −4.0): −93%
Percent Growth (A498; Log10 Concentration −5.0): −13%
Percent Growth (A498; Log10 Concentration −6.0): 66%
Percent Growth (A498; Log10 Concentration −7.0): 73%
Percent Growth (A498; Log10 Concentration −8.0): 84%
GI50 (CAKI-1): 2030 nM
TGI (CAKI-1): 6.16E−6
Percent Growth (CAKI-1; Log10 Concentration −4.0): −97%
Percent Growth (CAKI-1; Log10 Concentration −5.0): −22%
Percent Growth (CAKI-1; Log10 Concentration −6.0): 82%
Percent Growth (CAKI-1; Log10 Concentration −7.0): 91%
Percent Growth (CAKI-1; Log10 Concentration −8.0): 97%
GI50 (RXF 393): 1200 nM
TGI (RXF 393): 2.53E−6
Percent Growth (RXF 393; Log10 Concentration −4.0): −92%
Percent Growth (RXF 393; Log10 Concentration −5.0): −92%
Percent Growth (RXF 393; Log10 Concentration −6.0): 62%
Percent Growth (RXF 393; Log10 Concentration −7.0): 95%
Percent Growth (RXF 393; Log10 Concentration −8.0): 100%
GI50 (MDA-MB-468): 578 nM
TGI (MDA-MB-468): 2.65E−6
Percent Growth (MDA-MB-468; Log10 Concentration −4.0): −75%
Percent Growth (MDA-MB-468; Log10 Concentration −5.0): −48%
Percent Growth (MDA-MB-468; Log10 Concentration −6.0): 36%
Percent Growth (MDA-MB-468; Log10 Concentration −7.0): 96%
Percent Growth (MDA-MB-468; Log10 Concentration −8.0): 88%
GI50 (IGROV1): 2310 nM
TGI (IGROV1): 7.26E−6
Percent Growth (IGROV1; Log10 Concentration −4.0): −60%
Percent Growth (IGROV1; Log10 Concentration −5.0): −14%
Percent Growth (IGROV1; Log10 Concentration −6.0): 87%
Percent Growth (IGROV1; Log10 Concentration −7.0): 106%
Percent Growth (IGROV1; Log10 Concentration −8.0): 107%
GI50 (NCI/ADR-RES): 5220 nM
TGI (NCI/ADR-RES): 2.08E−5
Percent Growth (NCI/ADR-RES; Log10 Concentration −4.0): −65%
Percent Growth (NCI/ADR-RES; Log10 Concentration −5.0): 30%
Percent Growth (NCI/ADR-RES; Log10 Concentration −6.0): 99%
Percent Growth (NCI/ADR-RES; Log10 Concentration −7.0): 99%
Percent Growth (NCI/ADR-RES; Log10 Concentration −8.0): 100%
GI50 (PC-3): 10800 nM
TGI (PC-3): 2.41E−5
Percent Growth (PC-3; Log10 Concentration −4.0): −89%
Percent Growth (PC-3; Log10 Concentration −5.0): 55%
Percent Growth (PC-3; Log10 Concentration −6.0): 97%
Percent Growth (PC-3; Log10 Concentration −7.0): 99%
Percent Growth (PC-3; Log10 Concentration −8.0): 101%
GI50 (DU-145): 2440 nM
TGI (DU-145): 8.35E−6
Percent Growth (DU-145; Log10 Concentration −4.0): −100%
Percent Growth (DU-145; Log10 Concentration −5.0): −7%
Percent Growth (DU-145; Log10 Concentration −6.0): 86%
Percent Growth (DU-145; Log10 Concentration −7.0): 100%
Percent Growth (DU-145; Log10 Concentration −8.0): 102%
GI50 (HOP-92): 1450 nM
TGI (HOP-92): 3.89E−6
Percent Growth (HOP-92; Log10 Concentration −4.0): −94%
Percent Growth (HOP-92; Log10 Concentration −5.0): −48%
Percent Growth (HOP-92; Log10 Concentration −6.0): 69%
Percent Growth (HOP-92; Log10 Concentration −7.0): 92%
Percent Growth (HOP-92; Log10 Concentration −8.0): 95%
GI50 (NCI-H23): 2590 nM
TGI (NCI-H23): 8.51E−6
Percent Growth (NCI-H23; Log10 Concentration −4.0): −70%
Percent Growth (NCI-H23; Log10 Concentration −5.0): −7%
Percent Growth (NCI-H23; Log10 Concentration −6.0): 98%
Percent Growth (NCI-H23; Log10 Concentration −7.0): 96%
Percent Growth (NCI-H23; Log10 Concentration −8.0): 93%
